Reference: publication PMC4139341 (PLoS ONE, 2014)

Columns and labels:
AChE = AChE (Electrophorus electricus, UniProt O42275); assay: biochemical
Protocol: The modified method of Ellman et al. was adopted to measure AChE activity. Briefly, 25 µl (0.3 U/ml) AChE from Electric eel fish (Electrophorus electricus) was incubated with and without different concentrations of drugs selected from Molecular Docking studies. The reaction was carried out for 15 min at 25°C. […] Total volume of the reaction was made up to 1 ml by Tris buffer, pH 8.0. ATCI hydrolysis was measured by colored product formation, 5-thio-2-nitrobenzoate anion by reaction between DTNB and thiocholine, a hydrolysis product of ATCI. The formation of the colored product was measured at 405 nm wavelength after 30 min. The background was determined from negative controls (omission of AChE enzyme).
(§1) Lineweaver-Burk double reciprocal plot was plotted in order to determine the Km. […] The Ki was calculated directly from IC50 value using Cheng-Prussoffs classical equation [45]. [drawing 1]
(§2) The reciprocals of reaction rate (1/v) for each inhibitor concentration were plotted against the reciprocals of the substrate concentrations (1/S).

Bovine trypsin = Bovine trypsin (Bos taurus, UniProt P00760); settings: 0.1 and 0.5 mM
Protocol: Activity of Bovine trypsin was estimated using enzyme-specific chromogenic substrate BApNA [46]. […] Further, 1 ml BApNA was added to the reaction mixture and incubated for 10 min at 37°C. The reaction was terminated by addition of 200 µl of 30% acetic acid and absorbance was measured at 410 nm.

Aβ13–22 [1] = target: T1, Aβ13–22 (Homo sapiens, UniProt P05067)
Protocol: (§3) Aβ13–22 peptide ([…]), the aggregation prone region of Aβ, was synthesized from Thermo Fisher Scientific. Synthetic Aβ13–22 peptide was dissolved in 10% ammonium hydroxide and sonicated for 5 min. It was then diluted in 10 mM PBS, pH 7.0 to a final concentration of 200 µM.
Inhibition of aggregation/ glycation mediated aggregation of Aβ was detected by static light scattering method using a Perkin-Elmer Luminescence spectrometer LS50B. Both excitation and emission wavelengths were set at 400 nm. Excitation and emission slit width was set to 10 nm and 2.5 nm, respectively. Scattering was recorded for 60 sec.

glycation of Aβ13–22 = glycation of Aβ13–22 (Homo sapiens, UniProt P05067); settings: excitation 370 nm, emission 440 nm; 0.1 M glucose, 7 days
Protocol: The details of insulin and BSA glycation are described in Method S1. […] These samples were further used to study glycation mediated Aβ aggregation by different assays.
Glycation associated fluorescence of Aβ was measured in amyloid, glycated amyloid treated with or without protryptiline at 370 nm excitation and emission was scanned from 400–550 nm.

ADAM17 = ADAM17 (Homo sapiens, UniProt P78536); assay: biochemical; settings: read-out: inhibition of ADAM 17
Protocol: Fluorescence was measured at 328 nm and 420 nm for excitation and emission respectively.

Aβ13–22 [2] = target: T1, Aβ13–22; assay: biochemical
Protocol: as §3
Thioflavin T assay was performed on 7th day of incubation. 50 µl (25 µM) of Aβ13–22 was mixed with 150 µl of Thioflavin T (ThT) stock solution (50 µM ThT in PBS pH 7.0) and placed in 96-well plate (black with flat bottom, Cornings). Fluorescence emission was measured at 460–550 nm upon excitation at 440 nm. To account for background fluorescence, the fluorescence intensity measured from each control solution without Aβ was subtracted from each solution containing Aβ13–22.

[3] = target: AChE activity in neuro2a cells (Mus musculus, UniProt P21836); settings: 25 µM and 60 µM protriptyline
Protocol: Murine neuro2a neuroblastoma cells were obtained from National Center for Cell Science, Pune, India. The cells were maintained in Dulbecco's modified Eagle's medium (DMEM) and 10% Fetal Bovine Serum (FBS). Cells were maintained at 37°C in humidified air containing 5% CO2 and were grown in monolayer cultures.

glycation of insulin = glycation of insulin (Homo sapiens, UniProt P01308); settings: MALDI; 500 µM and 1000 µM protriptyline
Protocol: (§4) 1.5mg/ml insulin and 0.1 M glucose were incubated with various concentrations of protryptiline in 10 mM PBS, pH 7.0 for 7 days. These samples were further used to study glycation inhibition by MALDI. BSA glycation reaction was performed in a similar manner with 1mg/ml BSA concentration and inhibition was studied by AGE fluorescence and Thioflavin T assay ^1.

[4] = target: glycation of BSA (Bovine Serum Albumin) (Bos taurus, UniProt P02769); settings: AGE fluorescence and Thioflavin T fluorescence
Protocol: as §4

Aβ13–22 [5] = target: T1, Aβ13–22; settings: incubated 7 days, protriptyline 0.010 mM; ∼400 nm average without
Protocol: as §3

BACE-1 = BACE-1 (Homo sapiens, UniProt P56817); assay: biochemical
Protocol: BACE-1 activity was studied in accordance with the manufacturer's instructions (Sigma). […] Negative control included all the reactants except BACE-1 enzyme. After 2 h, fluorescence emission was measured at 405 nm upon excitation at 320 nm.
as §1, §2

Sequence of BACE-1 (P56817 46-501): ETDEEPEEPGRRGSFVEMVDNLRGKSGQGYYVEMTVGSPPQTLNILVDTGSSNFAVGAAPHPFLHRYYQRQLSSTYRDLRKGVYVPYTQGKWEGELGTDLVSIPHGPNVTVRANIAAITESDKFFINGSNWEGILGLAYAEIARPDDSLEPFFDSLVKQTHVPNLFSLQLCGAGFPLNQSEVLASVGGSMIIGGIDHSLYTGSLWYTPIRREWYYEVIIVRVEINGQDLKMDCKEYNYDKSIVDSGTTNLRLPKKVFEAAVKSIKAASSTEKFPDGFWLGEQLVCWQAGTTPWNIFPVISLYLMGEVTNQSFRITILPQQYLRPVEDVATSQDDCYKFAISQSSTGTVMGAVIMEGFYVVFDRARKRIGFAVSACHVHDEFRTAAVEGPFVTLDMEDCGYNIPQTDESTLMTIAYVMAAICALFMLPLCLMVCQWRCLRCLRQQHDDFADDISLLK
Sequence of ADAM17 (P78536 215-824, species assumed): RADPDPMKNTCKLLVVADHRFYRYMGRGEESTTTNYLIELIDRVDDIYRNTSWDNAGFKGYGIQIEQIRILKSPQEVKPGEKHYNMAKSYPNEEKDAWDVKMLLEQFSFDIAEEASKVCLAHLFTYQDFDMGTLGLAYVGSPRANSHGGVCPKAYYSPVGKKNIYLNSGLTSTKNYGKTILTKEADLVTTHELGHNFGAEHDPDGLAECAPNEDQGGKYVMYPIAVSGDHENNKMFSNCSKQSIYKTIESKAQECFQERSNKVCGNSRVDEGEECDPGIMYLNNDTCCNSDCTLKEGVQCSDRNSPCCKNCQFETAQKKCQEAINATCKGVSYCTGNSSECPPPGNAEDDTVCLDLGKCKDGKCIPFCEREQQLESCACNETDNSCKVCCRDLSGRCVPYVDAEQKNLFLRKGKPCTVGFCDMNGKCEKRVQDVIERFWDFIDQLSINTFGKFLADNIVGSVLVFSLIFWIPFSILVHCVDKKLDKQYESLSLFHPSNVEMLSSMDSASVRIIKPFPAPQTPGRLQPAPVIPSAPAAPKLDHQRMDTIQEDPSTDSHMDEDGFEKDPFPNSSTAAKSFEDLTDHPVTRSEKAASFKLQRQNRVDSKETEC
Sequence of AChE (O42275 24-633): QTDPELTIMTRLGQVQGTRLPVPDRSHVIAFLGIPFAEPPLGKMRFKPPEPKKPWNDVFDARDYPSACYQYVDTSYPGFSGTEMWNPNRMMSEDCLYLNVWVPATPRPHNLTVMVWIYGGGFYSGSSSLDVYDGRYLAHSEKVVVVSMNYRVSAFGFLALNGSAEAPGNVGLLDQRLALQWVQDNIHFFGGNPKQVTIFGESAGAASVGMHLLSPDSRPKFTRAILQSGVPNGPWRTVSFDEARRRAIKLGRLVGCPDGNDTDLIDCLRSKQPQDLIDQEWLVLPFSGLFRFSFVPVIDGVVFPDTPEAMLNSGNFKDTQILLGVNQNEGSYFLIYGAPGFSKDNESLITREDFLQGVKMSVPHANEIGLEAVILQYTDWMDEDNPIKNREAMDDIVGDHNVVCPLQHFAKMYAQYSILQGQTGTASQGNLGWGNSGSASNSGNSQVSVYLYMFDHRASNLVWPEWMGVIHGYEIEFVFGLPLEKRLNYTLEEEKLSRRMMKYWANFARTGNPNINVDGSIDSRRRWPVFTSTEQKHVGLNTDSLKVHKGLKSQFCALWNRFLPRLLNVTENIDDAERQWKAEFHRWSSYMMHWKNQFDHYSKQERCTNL
Sequence of Bovine trypsin (P00760 24-246): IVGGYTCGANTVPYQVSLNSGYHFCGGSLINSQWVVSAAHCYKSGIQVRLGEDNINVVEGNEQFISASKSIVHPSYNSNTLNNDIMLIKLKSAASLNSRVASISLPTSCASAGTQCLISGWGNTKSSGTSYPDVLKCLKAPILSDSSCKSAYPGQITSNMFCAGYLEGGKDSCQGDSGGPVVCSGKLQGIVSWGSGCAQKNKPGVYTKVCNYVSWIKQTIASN
Sequence of AChE activity in neuro2a cells (P21836 32-614): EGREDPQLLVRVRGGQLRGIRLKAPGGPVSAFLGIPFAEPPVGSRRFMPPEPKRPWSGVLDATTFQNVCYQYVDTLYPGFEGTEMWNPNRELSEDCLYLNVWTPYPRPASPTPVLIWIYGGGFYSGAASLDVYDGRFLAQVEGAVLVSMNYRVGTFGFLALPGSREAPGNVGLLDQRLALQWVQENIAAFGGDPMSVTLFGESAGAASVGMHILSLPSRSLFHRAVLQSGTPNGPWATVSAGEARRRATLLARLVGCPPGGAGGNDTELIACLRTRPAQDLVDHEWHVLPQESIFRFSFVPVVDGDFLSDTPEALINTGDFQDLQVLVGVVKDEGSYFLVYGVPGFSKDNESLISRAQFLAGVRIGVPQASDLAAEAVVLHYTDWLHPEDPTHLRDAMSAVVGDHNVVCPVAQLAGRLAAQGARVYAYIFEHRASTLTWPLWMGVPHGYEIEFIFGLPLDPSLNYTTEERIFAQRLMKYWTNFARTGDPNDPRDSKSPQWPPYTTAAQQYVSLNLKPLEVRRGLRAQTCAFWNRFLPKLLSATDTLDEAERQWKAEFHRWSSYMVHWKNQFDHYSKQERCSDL
Sequence of glycation of BSA (Bovine Serum Albumin) (P02769 25-607): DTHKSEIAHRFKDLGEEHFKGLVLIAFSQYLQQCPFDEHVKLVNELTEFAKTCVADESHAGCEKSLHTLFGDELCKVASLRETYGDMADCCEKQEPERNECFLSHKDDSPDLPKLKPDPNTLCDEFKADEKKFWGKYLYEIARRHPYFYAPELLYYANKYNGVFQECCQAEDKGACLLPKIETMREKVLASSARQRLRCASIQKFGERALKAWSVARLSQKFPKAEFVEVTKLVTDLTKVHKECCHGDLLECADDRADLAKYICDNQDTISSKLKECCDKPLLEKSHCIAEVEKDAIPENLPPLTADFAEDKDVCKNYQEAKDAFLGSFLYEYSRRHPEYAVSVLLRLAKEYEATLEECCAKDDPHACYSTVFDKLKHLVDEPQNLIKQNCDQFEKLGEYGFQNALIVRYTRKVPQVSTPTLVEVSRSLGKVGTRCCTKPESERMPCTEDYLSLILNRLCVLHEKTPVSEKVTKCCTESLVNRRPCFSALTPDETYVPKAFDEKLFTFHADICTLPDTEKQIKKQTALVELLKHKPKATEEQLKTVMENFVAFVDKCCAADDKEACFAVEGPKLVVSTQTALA
Sequence of glycation of insulin (P01308 25-54 limits assumed): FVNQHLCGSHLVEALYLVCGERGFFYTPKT

Row | Structure (SMILES) | IC50 (AChE) [µM] | inhibition of trypsin activity (Bovine trypsin) | light scattering of Aβ aggregates (Aβ13–22 [1]) | glycation associated fluorescence of Aβ (glycation of Aβ13–22) | inhibition at 100 µM (ADAM17) [%] | inhibition at 500 µM (ADAM17) [%] | IC50 (Aβ13–22 [2]) [µM] | Thioflavin T fluorescence of Aβ13–22 (Aβ13–22 [2]) | lag time of nucleation phase of Aβ13–22 aggregation (ThT fluorescence) (Aβ13–22 [2]) [h] | AChE activity in neuro2a cells [3] | glycation of insulin (glycation of insulin) | glycation of BSA [4] | height of Aβ13–22 aggregates (AFM) (Aβ13–22 [5]) [nm] | Ki (BACE-1) [µM] | IC50 (BACE-1; IC50 for BACE1, summary statement) [µM] | IC50 (BACE-1; IC50 for BACE-1, 2 h at 37°C) [µM] | type of BACE-1 inhibition (BACE-1; Lineweaver-Burk plot, 15 µM protriptyline)
1 | CN(C)CCC=C1c2ccccc2CCc2ccccc21 [amitriptyline] | 600 | – | – | – | – | – | – | – | – | – | – | – | – | – | – | – | –
2 | CNCCC=C1c2ccccc2CCc2ccccc21 [nortriptyline] | 135 | – | – | – | – | – | – | – | – | – | – | – | – | – | – | – | –
3 | CNCCCC1c2ccccc2C=Cc2ccccc21 [protriptyline] | – | not able to inhibit trypsin activity | reduced the light scattering in a concentration dependent manner | reduced by protriptyline in a concentration dependent manner | ~3 | ~25 | < 150 | Concentration dependent decrease in Thioflavin T fluorescence | ~50 | concentration dependent decrease in AChE activity | inhibited glycation of insulin | inhibited glycation | ~100 | 5 | < 150 | ~25 | competitive inhibition
